The nature of data set [1]: Mouse Pharmacokinetics, oral single dose. In kind it is in vivo, male Swiss Albino mice. The conditions noted are these: male, Swiss Albino, plasma, 5 mg/kg, formulation by footnote: a 20% CremEL in H20, b 1% CMC in water, c 2% DMSO, 0.2% Tween80, 97.8% of 1% CMC. The procedure: Example 187: Mouse Pharmacokinetics
A dose of 5 mg/kg in an appropriate formulation was administered by oral gavage to fasted male Swiss Albino mice (n=3), and the plasma was collected at 0, 0.25, 0.5, 1, 2, 4, 8, and 24 h. Plasma levels were measured by HPLC/MS/MS methods and the pharmacokinetic parameters were determined for individual animals from plasma concentration-time data using noncompartmental model 200-202 in Phoenix WinNonlin 6.3.

For another data set, the target named is HDAC1 (Homo sapiens (Human), UniProt Q13547). The data set is described as follows: HDAC1 enzymatic assay. The conditions noted are these: read-out: Human HDAC1 IC50. In kind it is biochemical. In a few lines:
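Compound inhibition of human HDAC1 (0.5 ng enzyme, 10 uM substrate) was assessed by fluorescence after developer treatment, excitation 360 nm and emission 460 nm. Percent activity was normalized to no-compound (100%) and no-enzyme (0%) controls, plotted against concentration, and fitted to a sigmoidal dose-response curve in Graphpad Prism to obtain IC50 at half-maximal activity.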

In another data set the target is HDAC6 (Homo sapiens (Human), UniProt Q9UBN7). The experiment in a line: HDAC6 enzymatic assay. The data set is classed as biochemical. The conditions noted are these: read-out: Human HDAC6 IC50. The essentials: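 Following a 17 hour room-temperature incubation of 2 ng HDAC6 with 10 uM substrate and compound, 50 μl developer was added for another 20 minutes, and fluorescence (excitation 360 nm, emission 460 nm) was recorded. Activity was normalized to no-compound (100%) and no-enzyme (0%) wells, and IC50 came from sigmoidal dose-response fitting in Graphpad Prism.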

From US10357493B2, “Metalloenzyme inhibitor compounds” (Selenity Therapeutics (Bermuda), Ltd., priority 2017, dated 2019) come the findings set out here.

A value given as a limit tells only on which side of the number the result lay.

Chain of HDAC1 (Q13547 whole entry): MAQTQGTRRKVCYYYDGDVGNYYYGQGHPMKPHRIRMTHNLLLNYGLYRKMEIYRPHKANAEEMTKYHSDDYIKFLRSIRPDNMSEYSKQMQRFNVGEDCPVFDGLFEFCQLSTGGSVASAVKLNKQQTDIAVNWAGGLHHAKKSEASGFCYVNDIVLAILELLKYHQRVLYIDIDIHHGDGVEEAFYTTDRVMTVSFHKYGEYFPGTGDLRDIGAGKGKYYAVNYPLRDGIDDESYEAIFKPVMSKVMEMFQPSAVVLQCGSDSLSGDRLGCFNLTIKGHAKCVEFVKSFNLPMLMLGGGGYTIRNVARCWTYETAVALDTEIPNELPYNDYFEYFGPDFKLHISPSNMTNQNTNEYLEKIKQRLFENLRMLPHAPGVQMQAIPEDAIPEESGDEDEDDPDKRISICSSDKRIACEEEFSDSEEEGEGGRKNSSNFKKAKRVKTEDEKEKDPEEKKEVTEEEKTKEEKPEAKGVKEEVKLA
Chain of HDAC6 (Q9UBN7 whole entry): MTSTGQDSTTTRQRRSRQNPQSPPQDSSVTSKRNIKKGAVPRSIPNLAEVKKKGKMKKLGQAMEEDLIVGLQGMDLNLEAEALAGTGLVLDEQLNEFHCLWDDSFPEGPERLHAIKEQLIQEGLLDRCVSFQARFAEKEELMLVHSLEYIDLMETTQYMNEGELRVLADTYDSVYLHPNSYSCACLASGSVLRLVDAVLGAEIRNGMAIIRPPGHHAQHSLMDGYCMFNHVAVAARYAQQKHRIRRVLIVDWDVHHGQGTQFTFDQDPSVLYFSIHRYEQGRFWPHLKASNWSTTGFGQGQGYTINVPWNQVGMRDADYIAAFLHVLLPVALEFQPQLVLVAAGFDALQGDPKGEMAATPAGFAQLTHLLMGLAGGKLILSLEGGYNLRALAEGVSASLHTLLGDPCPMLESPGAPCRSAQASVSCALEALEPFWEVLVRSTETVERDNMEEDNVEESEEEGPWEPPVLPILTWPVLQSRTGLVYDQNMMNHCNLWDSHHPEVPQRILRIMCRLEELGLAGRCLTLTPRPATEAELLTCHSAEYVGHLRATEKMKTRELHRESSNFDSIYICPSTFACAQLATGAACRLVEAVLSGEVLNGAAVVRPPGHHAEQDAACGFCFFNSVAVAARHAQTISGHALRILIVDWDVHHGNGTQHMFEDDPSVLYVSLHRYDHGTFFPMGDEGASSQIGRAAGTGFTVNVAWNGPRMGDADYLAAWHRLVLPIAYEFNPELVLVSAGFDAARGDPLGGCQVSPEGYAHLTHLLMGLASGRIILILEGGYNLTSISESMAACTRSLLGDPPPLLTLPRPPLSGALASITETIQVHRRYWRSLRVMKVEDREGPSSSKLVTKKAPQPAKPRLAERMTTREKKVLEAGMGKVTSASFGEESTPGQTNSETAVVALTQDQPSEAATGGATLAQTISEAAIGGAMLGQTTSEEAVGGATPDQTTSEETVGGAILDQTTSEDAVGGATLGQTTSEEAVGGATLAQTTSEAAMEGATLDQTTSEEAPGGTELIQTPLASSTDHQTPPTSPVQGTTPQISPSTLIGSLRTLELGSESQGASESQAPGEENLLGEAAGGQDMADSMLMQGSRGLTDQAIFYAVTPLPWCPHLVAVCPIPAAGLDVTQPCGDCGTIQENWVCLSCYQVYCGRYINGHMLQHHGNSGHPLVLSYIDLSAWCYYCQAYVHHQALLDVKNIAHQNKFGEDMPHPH

Take `O=C(CCCCCCNC(=O)c1cnc(N(c2ccccc2)c2ccccc2)nc1)NO` [Ricolinostat, ricolinostat, reference compound]: in data set [1], the Cmax (commonly the highest concentration seen after dosing) stood at 47 ng/mL and the half-life (commonly the time needed for the level to fall by half in the phase considered) was 2.7 h.
In the case of `CN(CC(Nc1ncc(-c2nnc(C(F)F)o2)cn1)c1ccc(F)cc1)S(C)(=O)=O` (single isomer, unassigned) [113(+), N-(2-((5-(5-(difluoromethyl)-1,3,4-oxadiazol-2-yl)pyrimidin-2-yl)amino)-2-(4-fluorophenyl)ethyl)-N-methylmethanesulfonamide], in data set [1], the Cmax turned out to be 1360 ng/mL and the half-life was 3.5 h.
Turning to `CN(CC(Nc1ncc(-c2nnc(C(F)F)o2)cn1)c1ccc(F)cc1F)S(=O)(=O)C1CC1` (stereo not drawn) [143(+), N-(2-((5-(5-(difluoromethyl)-1,3,4-oxadiazol-2-yl)pyrimidin-2-yl)amino)-2-(2,4-difluorophenyl)ethyl)-N-methylcyclopropanesulfonamide], the IC50 (in general, the concentration that inhibits the measured activity by half) on HDAC1 was more than 30000 nM; on HDAC6, 53 nM.
The corresponding values for `CN(CC(Nc1ncc(-c2nnc(C(F)F)o2)cn1)c1ccc(F)cc1)C(=O)C1CC1` (single isomer, unassigned) [169(+), N-(2-((5-(5-(difluoromethyl)-1,3,4-oxadiazol-2-yl)pyrimidin-2-yl)amino)-2-(4-fluorophenyl)ethyl)-N-methylcyclopropanecarboxamide] are more than 30000 nM and 77 nM.
The corresponding values for `Fc1cc(C(F)(F)F)ccc1C1(Nc2ncc(-c3nnc(C(F)F)o3)cn2)CC1` [Example 71, 5-(5-(difluoromethyl)-1,3,4-oxadiazol-2-yl)-N-(1-(2-fluoro-4-(trifluoromethyl)phenyl)cyclopropyl)pyrimidin-2-amine] are more than 30000 nM and 100 nM.
The corresponding values for `O=S(=O)(C1CC1)N(CC(Nc1ncc(-c2nnc(C(F)F)o2)cn1)c1ccc(F)cc1F)CC(F)(F)F` (stereo not drawn) [144(+), N-(2-((5-(5-(difluoromethyl)-1,3,4-oxadiazol-2-yl)pyrimidin-2-yl)amino)-2-(2,4-difluorophenyl)ethyl)-N-(2,2,2-trifluoroethyl)cyclopropanesulfonamide] are more than 30000 nM and 160 nM.
As to `CC(Nc1ncc(-c2nnc(C(F)F)o2)cn1)c1c(F)cccc1F` (single isomer, unassigned; (+)) [100(+), (+)-5-(5-(difluoromethyl)-1,3,4-oxadiazol-2-yl)-N-(1-(2,6-difluorophenyl)ethyl)pyrimidin-2-amine], the IC50 is more than 30000 nM on HDAC1 and 30 nM at HDAC6.
Consider `CC(Nc1ncc(-c2nnc(C(F)F)o2)cn1)c1ccc(F)cc1` (single isomer, unassigned; (+)) [20(+), (+)-5-(5-(difluoromethyl)-1,3,4-oxadiazol-2-yl)-N-(1-(4-fluorophenyl)ethyl)pyrimidin-2-amine], for which the results for the IC50 on HDAC1 and on HDAC6 were more than 30000 nM and 21 nM, respectively.
The corresponding values for `COc1cc(F)c(C2(Nc3ncc(-c4nnc(C(F)F)o4)cn3)CC2)c(F)c1` [Example 106, N-(1-(2,6-difluoro-4-methoxyphenyl)cyclopropyl)-5-(5-(difluoromethyl)-1,3,4-oxadiazol-2-yl)pyrimidin-2-amine] are more than 30000 nM and 16 nM.
The corresponding values for `Fc1ccc(C2(Nc3ncc(-c4nnc(C(F)F)o4)cn3)CC2)c(C(F)(F)F)c1` [Example 63, 5-(5-(difluoromethyl)-1,3,4-oxadiazol-2-yl)-N-(1-(4-fluoro-2-(trifluoromethyl)phenyl)cyclopropyl) pyrimidin-2-amine] are more than 30000 nM and 88 nM.
The corresponding values for `CC(Nc1ncc(-c2nnc(C(F)F)o2)cn1)c1ccc(F)cc1` (stereo not drawn) [Example 20, 5-(5-(difluoromethyl)-1,3,4-oxadiazol-2-yl)-N-(1-(4-fluorophenyl)ethyl)pyrimidin-2-amine] are more than 30000 nM and 33 nM.
On to `Fc1ccc(C(Nc2ncc(-c3nnc(C(F)F)o3)cn2)C2CC2)cc1` (stereo not drawn) [Example 36, N-(cyclopropyl(4-fluorophenyl)methyl)-5-(5-(difluoromethyl)-1,3,4-oxadiazol-2-yl)pyrimidin-2-amine], for which the IC50 was more than 30000 nM on HDAC1 and 64 nM at HDAC6.
The corresponding values for `O=C(C(Nc1ncc(-c2nnc(C(F)F)o2)cn1)c1ccc(F)cc1)N1CCOCC1` (stereo not drawn) [Example 30, 2-((5-(5-(difluoromethyl)-1,3,4-oxadiazol-2-yl)pyrimidin-2-yl)amino)-2-(4-fluorophenyl)-1-morpholinoethan-1-one] are more than 30000 nM and 770 nM.
The corresponding values for `Fc1ccc(F)c(C2(Nc3ncc(-c4nnc(C(F)F)o4)cn3)CC2)c1` [Example 61, 5-(5-(difluoromethyl)-1,3,4-oxadiazol-2-yl)-N-(1-(2,5-difluorophenyl)cyclopropyl) pyrimidin-2-amine] are more than 30000 nM and 22 nM.
With `Fc1c(Cl)cccc1C1(Nc2ncc(-c3nnc(C(F)F)o3)cn2)CC1` [Example 73, N-(1-(3-chloro-2-fluorophenyl)cyclopropyl)-5-(5-(difluoromethyl)-1,3,4-oxadiazol-2-yl)pyrimidin-2-amine], the IC50 was more than 30000 nM at HDAC1 and 17 nM at HDAC6.
As to `Fc1cccc(C2(Nc3ncc(-c4nnc(C(F)F)o4)cn3)CC2)c1` [Example 57, 5-(5-(difluoromethyl)-1,3,4-oxadiazol-2-yl)-N-(1-(3-fluorophenyl)cyclopropyl)pyrimidin-2-amine], the IC50 is more than 100000 nM at HDAC1 and 15 nM at HDAC6.
The corresponding values for `Fc1cc(F)cc(C2(Nc3ncc(-c4nnc(C(F)F)o4)cn3)CC2)c1` [Example 72, 5-(5-(difluoromethyl)-1,3,4-oxadiazol-2-yl)-N-(1-(3,5-difluorophenyl)cyclopropyl) pyrimidin-2-amine] are more than 30000 nM and 35 nM.
As for `O=S1(=O)CCCN1CC(Nc1ncc(-c2nnc(C(F)F)o2)cn1)c1ccc(F)cc1` (single isomer, unassigned; (-)) [120(−), (−)-2-(2-((5-(5-(difluoromethyl)-1,3,4-oxadiazol-2-yl)pyrimidin-2-yl)amino)-2-(4-fluorophenyl)ethyl)isothiazolidine 1,1-dioxide], the IC50 on HDAC1 was more than 30000 nM; at HDAC6, 150 nM.
The corresponding values for `CS(=O)(=O)NCC(Nc1ncc(-c2nnc(C(F)F)o2)cn1)c1ccc(F)cc1` (single isomer, unassigned) [38(−), N-(2-((5-(5-(difluoromethyl)-1,3,4-oxadiazol-2-yl)pyrimidin-2-yl)amino)-2-(4-fluorophenyl)ethyl) methanesulfonamide] are more than 30000 nM and 320 nM.
The corresponding values for `Cc1cccc(CNc2ncc(-c3nnc(C(F)(F)F)o3)cn2)n1` [Example 3, N-((6-methylpyridin-2-yl)methyl)-5-(5-(trifluoromethyl)-1,3,4-oxadiazol-2-yl) pyrimidin-2-amine] are more than 30000 nM and 230 nM.
The corresponding values for `CS(=O)(=O)NCCC(Nc1ncc(-c2nnc(C(F)F)o2)cn1)c1ccc(F)cc1` (stereo not drawn) [Example 125, N-(3-((5-(5-(difluoromethyl)-1,3,4-oxadiazol-2-yl)pyrimidin-2-yl)amino)-3-(4-fluorophenyl)propyl)methanesulfonamide] are more than 30000 nM and 26 nM.
